Results on 37 compounds are retold here after patent US10059713B2 (Takeda Pharmaceutical Company Limited, priority 2014, dated 2018).

In this assay the target is human GPR43 (Homo sapiens (Human), UniProt O15552). As to the kind of experiment: Ca-Flux functional assay: determination of agonist/positive allosteric modulator (PAM) activity. Format: cell-based. To be noted: CHO-K1 Gα16 cells stably expressing human GPR43; compound added with EC20 sodium acetate; intracellular Ca2+ by FLIPR; does not distinguish agonist from PAM. The method in brief: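 CHO-K1 Gα16 cells stably expressing human GPR43, loaded with Calcium 5 dye 1 h; compounds (10-point half-log from 10 μM) added with sodium acetate at EC20. FLIPR calcium signal gave EC50, two wells per point; agonists and PAMs not distinguished.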
Chain of human GPR43 (O15552 whole entry): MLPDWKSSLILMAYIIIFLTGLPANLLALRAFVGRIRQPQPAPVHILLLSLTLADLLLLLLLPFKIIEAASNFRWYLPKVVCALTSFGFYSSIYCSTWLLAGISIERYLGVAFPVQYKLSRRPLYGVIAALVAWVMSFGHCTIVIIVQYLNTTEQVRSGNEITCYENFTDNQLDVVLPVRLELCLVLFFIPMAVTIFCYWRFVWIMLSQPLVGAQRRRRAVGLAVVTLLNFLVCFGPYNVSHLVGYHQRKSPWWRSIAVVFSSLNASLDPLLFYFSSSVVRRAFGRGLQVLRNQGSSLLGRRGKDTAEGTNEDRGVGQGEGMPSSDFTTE

`COc1ccc(S(=O)(=O)c2c(N)[nH]c3c(C4CCCCC4)ncnc23)cc1` [Example 5, 4-cyclohexyl-7-[(4-methoxybenzene)sulfonyl]-5H-pyrrolo[3,2-d]pyrimidin-6-amine] displayed an EC50 of 80 nM.

As for `Cc1nc(N2CCOC3(CCCC3)C2)c2[nH]c(N)c(S(=O)(=O)c3ccccc3F)c2n1` [Example 177, 7-(2-fluorobenzenesulfonyl)-2-methyl-4-{6-oxa-9-azaspiro[4.5]decan-9-yl}-5H-pyrrolo[3,2-d]pyrimidin-6-amine], the response was half-maximal at 6 nM (EC50).

Take `Nc1[nH]c2c(N3CCC(F)(F)C3)ncnc2c1S(=O)(=O)c1ccccc1` [Example 29, 7-(benzenesulfonyl)-4-(3,3-difluoropyrrolidin-1-yl)-5H-pyrrolo[3,2-d]pyrimidin-6-amine]: a half-maximal response (EC50) required 399 nM.

`Cc1nc(N2CCOC3(CCCC3)C2)c2[nH]c(N)c(S(=O)(=O)c3cccc(F)c3)c2n1` [Example 199, 7-(3-fluorobenzenesulfonyl)-2-methyl-4-{6-oxa-9-azaspiro[4.5]decan-9-yl}-5H-pyrrolo[3,2-d]pyrimidin-6-amine] yielded an EC50 of 25 nM.

On to `Cc1nc(OC2CCCOC2(C)C)c2[nH]c(N)c(S(=O)(=O)c3ccccc3F)c2n1` (stereo not shown) [Example 296, 4-[(2,2-dimethyloxan-3-yl)oxy]-7-(2-fluorobenzenesulfonyl)-2-methyl-5H-pyrrolo[3,2-d]pyrimidin-6-amine], for which it took 53 nM to reach a half-maximal effect (EC50).

Take `Nc1[nH]c2c(OCC3CCCC3)ncnc2c1S(=O)(=O)c1ccccc1` [Example 201, 7-(benzenesulfonyl)-4-(cyclopentylmethoxy)-5H-pyrrolo[3,2-d]pyrimidin-6-amine]: the EC50 came to 50 nM.

In turn, `Nc1[nH]c2c(C3CCCCC3)ncnc2c1S(=O)(=O)c1ccccc1` [Example 3, 7-(benzenesulfonyl)-4-cyclohexyl-5H-pyrrolo[3,2-d]pyrimidin-6-amine] showed an EC50 of 43 nM.

Consider `Cc1nc(N2CCO[C@H](C(F)(F)F)C2)c2[nH]c(N)c(S(=O)(=O)c3cc(F)ccc3F)c2n1` [Example 292], for which a half-maximal effect (EC50) was put at 3 nM.

The compound `Cc1nc(N2CCOC(C)(C)C2)c2[nH]c(N)c(S(=O)(=O)c3ccc(Cl)cc3F)c2n1` [Example 279, 7-(4-chloro-2-fluorobenzenesulfonyl)-4-(2,2-dimethylmorpholin-4-yl)-2-methyl-5H-pyrrolo[3,2-d]pyrimidin-6-amine] gave an EC50 of 4 nM.

Consider `Cc1nc(N2CCO[C@@H](C)C2)c2[nH]c(N)c(S(=O)(=O)c3ccc(Br)cc3N3CCO[C@@H](C)C3)c2n1` [Example 240, 7-{4-bromo-2-[(2S)-2-methylmorpholin-4-yl]benzenesulfonyl}-2-methyl-4-[(2S)-2-methylmorpholin-4-yl]-5H-pyrrolo[3,2-d]pyrimidin-6-amine], for which the EC50 was determined as 125 nM.

`Nc1[nH]c2c(OC3CCCC3)ncnc2c1S(=O)(=O)c1ccccc1` [Example 202, 7-(benzenesulfonyl)-4-(cyclopentyloxy)-5H-pyrrolo[3,2-d]pyrimidin-6-amine]: the midpoint of the response, the EC50, lay at 50 nM.

Take `CCc1nc(C2=CCCCC2)c2[nH]c(N)c(S(=O)(=O)c3ccccc3)c2n1` [Example 41, 7-(benzenesulfonyl)-4-(cyclohex-1-en-1-yl)-2-ethyl-5H-pyrrolo[3,2-d]pyrimidin-6-amine]: the response was half-maximal at 37 nM (EC50).

The compound `Nc1[nH]c2c(C3=CCCCC3)ncnc2c1S(=O)(=O)c1cccc(F)c1` [Example 37, 4-(cyclohex-1-en-1-yl)-7-[(3-fluorobenzene)sulfonyl]-5H-pyrrolo[3,2-d]pyrimidin-6-amine] displayed an EC50 of 80 nM.

`CC(C)c1ncnc2c(S(=O)(=O)c3ccccc3)c(N)[nH]c12` [Example 15, 7-(benzenesulfonyl)-4-(propan-2-yl)-5H-pyrrolo[3,2-d]pyrimidin-6-amine]: the EC50 was determined as 1060 nM.

Regarding `Nc1[nH]c2c(OC3CCCCC3)ncnc2c1S(=O)(=O)c1ccccc1` [Example 160, 7-(benzenesulfonyl)-4-(cyclohexyloxy)-5H-pyrrolo[3,2-d]pyrimidin-6-amine], the midpoint of the response, the EC50, lay at 39 nM. This EC50 is about 27-fold lower than that of the compound before.

As to `Cc1nc(N2CCO[C@H](C(F)(F)F)C2)c2[nH]c(N)c(S(=O)(=O)c3cccc(F)c3F)c2n1` [Example 285, 7-(2,3-difluorobenzenesulfonyl)-2-methyl-4-[(2S)-2-(trifluoromethyl)morpholin-4-yl]-5H-pyrrolo[3,2-d]pyrimidin-6-amine], the EC50 amounted to 2 nM. This EC50 is about 20-fold lower than that of the compound before.

`CCC(CC)Oc1ncnc2c(S(=O)(=O)c3ccccc3)c(N)[nH]c12` [Example 213, 7-(benzenesulfonyl)-4-(pentan-3-yloxy)-5H-pyrrolo[3,2-d]pyrimidin-6-amine] returned an EC50 of 17 nM.

For the compound `Nc1[nH]c2c(C3=CCCCC3)ncnc2c1S(=O)(=O)C1CCCCC1` [Example 50, 4-(cyclohex-1-en-1-yl)-7-(cyclohexanesulfonyl)-5H-pyrrolo[3,2-d]pyrimidin-6-amine], the EC50 was determined as 80 nM.

The compound `CC[C@@H](C)Oc1nc(C)nc2c(S(=O)(=O)c3ccccc3)c(N)[nH]c12` [Example 244, 7-(benzenesulfonyl)-4-[(2R)-butan-2-yloxy]-2-methyl-5H-pyrrolo[3,2-d]pyrimidin-6-amine] registered an EC50 of 31 nM.

Regarding `COC1CCN(c2ncnc3c(S(=O)(=O)c4ccccc4)c(N)[nH]c23)CC1` [Example 28, 7-(benzenesulfonyl)-4-(4-methoxypiperidin-1-yl)-5H-pyrrolo[3,2-d]pyrimidin-6-amine], it took 647 nM to reach a half-maximal effect (EC50).

Take `C[C@H]1CN(c2ncnc3c(S(=O)(=O)c4ccccc4)c(N)[nH]c23)CCO1` [Example 86, 7-(benzenesulfonyl)-4-[(2S)-2-methylmorpholin-4-yl]-5H-pyrrolo[3,2-d]pyrimidin-6-amine]: the EC50 is 19 nM.

For `CCN(CC1CCOCC1)c1ncnc2c(S(=O)(=O)c3ccccc3)c(N)[nH]c12` [Example 188, 7-(benzenesulfonyl)-4-N-ethyl-4-N-(oxan-4-ylmethyl)-5H-pyrrolo[3,2-d]pyrimidine-4,6-diamine], it took 2660 nM to reach a half-maximal effect (EC50).

As for `Nc1[nH]c2c(NCC3CC3)ncnc2c1S(=O)(=O)c1ccccc1` [Example 70, 7-(benzenesulfonyl)-4-N-(cyclopropylmethyl)-5H-pyrrolo[3,2-d]pyrimidine-4,6-diamine], the EC50 was found to be 763 nM. Against the preceding compound, the EC50 is about 3.5-fold lower.

In turn, `Cc1nc(OCC(C)C)c2[nH]c(N)c(S(=O)(=O)c3ccccc3)c2n1` [Example 251, 7-(benzenesulfonyl)-2-methyl-4-(2-methylpropoxy)-5H-pyrrolo[3,2-d]pyrimidin-6-amine] registered an EC50 of 49 nM.

The compound `Cc1nc(OC(C)C2CCCCC2)c2[nH]c(N)c(S(=O)(=O)c3ccccc3)c2n1` (stereo not shown) [Example 255, 7-(benzenesulfonyl)-4-(1-cyclohexylethoxy)-2-methyl-5H-pyrrolo[3,2-d]pyrimidin-6-amine] gave an EC50 of 65 nM.

With `COc1ccccc1S(=O)(=O)c1c(N)[nH]c2c(N3CCOC(C)C3)ncnc12` (stereo not shown) [Example 152, 7-(2-methoxybenzenesulfonyl)-4-(2-methylmorpholin-4-yl)-5H-pyrrolo[3,2-d]pyrimidin-6-amine], a half-maximal response (EC50) required 2150 nM.

In turn, `Cc1nc(OC2CCC2)c2[nH]c(N)c(S(=O)(=O)c3ccccc3)c2n1` [Example 252, 7-(benzenesulfonyl)-4-cyclobutoxy-2-methyl-5H-pyrrolo[3,2-d]pyrimidin-6-amine] showed an EC50 of 67 nM.

As for `Nc1[nH]c2c(O[C@@H]3CCOC3)ncnc2c1S(=O)(=O)c1ccccc1` [Example 159, 7-(benzenesulfonyl)-4-[(3R)-oxolan-3-yloxy]-5H-pyrrolo[3,2-d]pyrimidin-6-amine], the EC50 turned out to be 5250 nM.

The compound `Cc1nc(OC(C)C2CCC2)c2[nH]c(N)c(S(=O)(=O)c3ccccc3)c2n1` (stereo not shown) [Example 256, 7-(benzenesulfonyl)-4-(1-cyclobutylethoxy)-2-methyl-5H-pyrrolo[3,2-d]pyrimidin-6-amine] returned an EC50 of 18 nM.

Take `Cc1nc(OCC2CC2)c2[nH]c(N)c(S(=O)(=O)c3cccc(F)c3)c2n1` [Example 194, 4-(cyclopropylmethoxy)-7-(3-fluorobenzenesulfonyl)-2-methyl-5H-pyrrolo[3,2-d]pyrimidin-6-amine]: the EC50 came to 475 nM.

In turn, `CCC1CN(c2ncnc3c(S(=O)(=O)c4ccccc4)c(N)[nH]c23)CCO1` (stereo not shown) [Example 79, 7-(benzenesulfonyl)-4-(2-ethylmorpholin-4-yl)-5H-pyrrolo[3,2-d]pyrimidin-6-amine] showed an EC50 of 40 nM.

`Nc1[nH]c2c(C3CCCCC3)ncnc2c1S(=O)(=O)C1CCCCC1` [Example 51, 7-(cyclohexanesulfonyl)-4-cyclohexyl-5H-pyrrolo[3,2-d]pyrimidin-6-amine] displayed an EC50 of 162 nM.

As to `Nc1[nH]c2c(C3=CCCCC3)ncnc2c1S(=O)(=O)c1ccccc1F` [Example 38, 4-(cyclohex-1-en-t-yl)-7-[(2-fluorobenzene)sulfonyl]-5H-pyrrolo[3,2-d]pyrimidin-6-amine], the EC50 was 16 nM. Against the preceding compound, the EC50 is about 10-fold lower.

Compound `COc1cccc(S(=O)(=O)c2c(N)[nH]c3c(N4CCOC(C)C4)ncnc23)c1` (stereo not shown) [Example 154, 7-(3-methoxybenzenesulfonyl)-4-(2-methylmorpholin-4-yl)-5H-pyrrolo[3,2-d]pyrimidin-6-amine] registered an EC50 of 47 nM.

On to `Cc1nc(N2C[C@H](C)OC[C@@H]2C)c2[nH]c(N)c(S(=O)(=O)c3ccccc3F)c2n1` [Example 223, 4-[(2S,5S)-2,5-dimethylmorpholin-4-yl]-7-(2-fluorobenzenesulfonyl)-2-methyl-5H-pyrrolo[3,2-d]pyrimidin-6-amine], for which a half-maximal response (EC50) required 7 nM.

`Nc1[nH]c2c(-c3ccncc3)ncnc2c1S(=O)(=O)c1ccccc1` [Example 66, 7-(benzenesulfonyl)-4-(pyridin-4-yl)-5H-pyrrolo[3,2-d]pyrimidin-6-amine] had an EC50 of 2410 nM.

Regarding `Nc1[nH]c2c(C3=CCCCC3)ncnc2c1S(=O)(=O)c1ccccc1` [Example 2, 7-(benzenesulfonyl)-4-(cyclohex-1-en-1-yl)-5H-pyrrolo[3,2-d]pyrimidin-6-amine], the midpoint of the response, the EC50, lay at 21 nM.

Broadly, the EC50 is the midpoint of the concentration-response curve.
